{"source": "patent US8273762B2", "about": "“Hexahydro-pyrrolo-isoquinoline compounds” (Janssen Pharmaceutica NV, priority 2005, dated 2012)", "key": {"[1]": {"tested_on": "serotonin and dopamine levels in the cortex", "experiment": "Microdialysis of serotonin and dopamine in cortex", "format": "in vivo", "settings": "cortex of freely moving rats, 1 mg/kg subcutaneous, FIG. 1", "source_text": "Microdialysis is used to measure the concentration of small biological molecules in the extracellular fluid of the brain (Parent, M. et al. Methods 2001, 23, 11-20). A small probe, containing a fine microdialysis membrane at its tip, is introduced into the brain of an animal. A buffered solution is infused through the catheter. Small molecules, such as monoamine neurotransmitters, diffuse through the pores in the microdialysis membrane and are captured in the solution. The samples are then analyzed by analytical techniques to quantitate the amount of neurotransmitter in the brain extracellular fluid. This technique has been used extensively to measure the effects of SERT inhibitors on levels of extracellular serotonin.\nMicrodialysis was used to measure the levels of serotonin and dopamine in the brain of freely moving rats after subcutaneous injection of Example 8A. […] Results are represented as the average ±s.d. of n=2-4 rats."}, "[2]": {"tested_on": "synaptic reuptake of 5-HT", "experiment": "5-HTP potentiation test (head twitches)", "format": "in vivo", "settings": "mice, 5 min interval, carbidopa 10 mg/kg + 5-HTP 40 mg/kg, average ± s.e.m."}, "H3 receptor": {"tested_on": "H3 receptor", "settings": "60 min, average ± s.e.m.", "excerpt": "In this model, animals were introduced into a cage containing a fully-automated water drinking monitoring system. […] Results are shown as averages ±s.e.m. of n=8-13 animals."}}, "note": "Like-named read-outs stand apart in the source and are kept apart here.", "data": [{"smiles": "COc1ccc([C@H]2CN3CCC[C@H]3c3cc(OCCCN4CCCCC4)ccc32)cc1", "note": "(relative stereo) [Example 8A, Cis-6-(4-Methoxy-phenyl)-9-(3-piperidin-1-yl-propoxy)-1,2,3,5,6,10b-hexahydro-pyrrolo[2,1-a]isoquinoline]", "values": [{"measurement": "dopamine (DA) levels by microdialysis", "setting": "[1]", "result": "slow, persistent increase"}, {"measurement": "serotonin (5-HT) levels by microdialysis", "setting": "[1]", "result": "slow, persistent increase"}, {"measurement": "head twitch frequency", "setting": "[2]; 3 mg/kg, Group 1 (1 h)", "result": "6.0 ± 1.2 (3)"}, {"measurement": "head twitch frequency", "setting": "[2]; 3 mg/kg, Group 2 (24 h)", "result": "24.0 ± 2.1 (4)"}, {"measurement": "head twitch frequency", "setting": "[2]; 10 mg/kg, Group 1 (1 h)", "result": "2.0 ± 0.6 (3)"}, {"measurement": "head twitch frequency", "setting": "[2]; 10 mg/kg, Group 2 (24 h)", "result": "41.3 ± 5.2 (3)"}, {"measurement": "Water Consumed", "setting": "H3 receptor; Example 8A (1 mg/kg) i.p. + Imetit (1 mg/kg) after 24 h", "result": "1.99 ± 0.68", "unit": "mL"}, {"measurement": "Water Consumed", "setting": "H3 receptor; Example 8A (3 mg/kg) i.p. + Imetit (1 mg/kg) after 24 h", "result": "1.65 ± 0.51", "unit": "mL"}, {"measurement": "Water Consumed", "setting": "H3 receptor; Example 8A (10 mg/kg) i.p. + Imetit (1 mg/kg) after 24 h, p = 0.022 compared to imetit-treated animals", "result": "*0.25 ± 0.15 mL"}]}]}
